From patent US8304448B2, “Method for the treatment of metabolic disorder containing benzazole derivatives as an active ingredient” (Korea Research Institute of Bioscience and Biotechnology, priority 2006, dated 2012)

Key:
DGAT [1] = assay: Assay for inhibitory activity against DGAT ([14C]triacylglycerol formation, rat microsomal protein); type: biochemical; settings: rat microsomal protein as enzyme source
Description: The derivatives of Chemical Formula 1 in accordance with the present invention are found to inhibit the enzymatic activity of DGAT at a dose-dependent manner (refer to Table 2 and FIG. 1) as measured in a test in which [^14C]triacylglycerol was quantitatively analyzed after enzymatic reaction between 1,2-diacylglycerol and [^14C]palmitoyl-CoA, with microsomal proteins from rats serving as an enzyme source (refer to Example 1).
After enzymatic reaction between two substrates 1,2-diacylglycerol (Sigma, D0138) and [^14C]palmitoyl-CoA (Amersham, CFA583) with the microsomal protein of rat serving as an enzyme source in accordance with Coleman et al, Methods Enzymol., 98-103, 1992, the resulting product [^14C] triacylglycerol was measured for radioactivity. In detail, to a reaction buffer (175 mM Tris-HCl, pH 8.0, 20 μl bovine serum albumin (10 mg/ml), 100 mM MgCl2, 30 μM [^14C] palmitoyl-CoA (0.02 μCi, Amersham) and 200 μM 1,2-dioleoyl glycerol) was added 10 μl of a solution of the samples in dimethylsulfoxide (DMSO) and then 100˜200 μl of an isolated microsomal protein, followed by reaction at 25° C. for 10 min. The reaction was terminated with 1.5 ml of a mixture of 80:20:2 2-propanol:heptane:water (v:v:v). Thereafter, the [^14C] triacylglycerol thus formed was separated. In this regard, 1 ml of heptane and 0.5 ml of distilled water were added to the reaction mixture, which was then shaken. 1 ml of the supernatant thus formed was mixed with 2 ml of an alkaline ethanol solution (ethanol:0.5 N sodium hydroxide:water=50:10:40, v:v:v), followed by shaking. After being taken, 0.65 ml of the supernatant thus formed was measured for radioactivity using an LSC (liquid scintillation counter). The inhibitory activity against DGAT was calculated according to the following Mathematical Formula 1. The inhibitory effects of the benzazole derivatives on DGAT are summarized in Table 2, below while % DGAT inhibition is plotted against doses of compound 22 and 31 in FIG. 1.
T: Cpm of a test group in which a sample was added to an enzymatic buffer,
C: Cpm of a control in which no samples were added to an enzymatic buffer,
B: Cpm of a control in which a sample was added in the absence of any enzyme source.

DGAT [2] = assay: Assay for inhibitory effect on DGAT in cell (intracellular triglyceride production from [14C]acetate in HepG2 cells); type: cell-based, human; settings: final level 10 μM, DMSO control given as 100
Description: The effect of the benzazole derivatives of Chemical Formula 1 in accordance with the present invention on DGAT was examined with HepG2 cells, hepatic cells derived from the human liver, as follows.
HepG2 cells, purchased from ATCC, were cultured in Eagle's minimum essential medium (MEM), 2 mM L-glutamine, with Earle's balanced salt solution (BSS) adjusted to contain, 1.5 g/L sodium bicarbonate, 0.1 mM non-essential amino acids and 1 mM sodium pyruvate, supplemented with 10% fetal bovine serum (FBS) and 1% antibiotics (100 U/ml penicillin and 100 µg/ml streptomycin) at 37° C. in a 5% CO2 incubator.
Intracellular DGAT activity was represented by the amount of triglycerides produced in the cultured HepG2 cells while the compounds (4, 8, 10, 22, 24, 25, 26, 39 and 31) of Chemical Formula 1 were assayed for inhibitory activity against DGAT by measuring the change in intracellular triglyceride production after the addition thereof.
Cells were plated at a density of 1×10^6 cell/ml per well into 24-well plates and incubated for 24 hours. Then, the medium was exchanged with FBS-free MEM and pre-treated with samples for 1 hour. Thereafter, 0.2 mCi of [^14C]acetate (Amersham) was added as a substrate to the cells, followed by incubation for 1 hour. The production of triglyceride was catalyzed by DGAT so that DGAT activity was determined by the amount of the triglyceride product, which could be measured by radioactivity. For use, the samples were dissolved in dimethyl sulfoxide (DMSO). In a control, triglycerides were synthesized using DMSO without any sample, with the production yield thereof given as 100.
The amount of the glyceride products synthesized was determined as follows. After completion of synthesis, the cells were suspended in PBS (phosphate-buffer-saline) to remove the substrate [^14C]acetate, whether unabsorbed into the cells or remaining unreacted, and total lipids, including triglycerides, were extracted twice for 30 min with 0.5 ml of an extraction solvent mixture (hexane:isopropanol=3:2, v:v). 1 ml of the extract was concentrated with nitrogen gas.
The total lipid residue thus formed was dissolved in an organic solvent mixture (chloroform:methanol=2:1) and loaded dropwise onto a thin layer chromatography plate (TLC; silica gel 60F254, 0.5 mm, Merck) using a mixture of 80:20:1 hexane:diethylether:acetic acid (v:v:v) as a developing solvent. After the separation of triglycerides (Rf value: 0.4) on TLC, the plate was brought into contact with an autoradiographic film for three hours, followed by image analysis (BAS-1500, Fuji Photo Film Co. Ltd.) to determine the [^14C] radioactivity of the triglycerides. The cells left after the extraction were suspended in 0.3 ml of a 0.1 N sodium hydroxide solution to measure the cellular protein concentration thereof.
The empirical values were obtained by dividing triglyceride radioactivity by protein level, with correction for experimental errors between test groups.

SMILES: COC(=O)c1ccc2[nH]c(COc3ccc(C(C)(C)C)cc3C(C)(C)C)nc2c1 [Cpd. 8, 2-(2,4-tert-butyl-phenoxymethyl)-1H-benzoimidazole-5-carboxylic acid methyl ester]
- DGAT (% inhibition in 25 μM) (DGAT [1]): 37.36%
- Production Yield of Triglyceride (%) (DGAT [2]): 88.5 ± 5.8%

SMILES: O=C(NCc1ccco1)c1ccc2oc(COc3ccc(Cl)cc3Cl)nc2c1 [Cpd. 26, 2-(2,4-dichloro-phenoxymethyl)-benzoxazole-5-carboxylic acid (furan-2-ylmethyl)-amide]
- DGAT (% inhibition in 25 μM) (DGAT [1]): 19.75%
- Production Yield of Triglyceride (%) (DGAT [2]): 91.5 ± 5.2%

SMILES: O=C(NCCCN1CCOCC1)c1ccc2oc(COc3ccc(C45CC6CC(CC(C6)C4)C5)cc3)nc2c1 [Cpd. 25, 2-(4-adamantan-1-yl-phenoxymethyl)-benzoxazole-5-carboxylic acid (3-morpholin-4-yl-propyl)-amide]
- DGAT (% inhibition in 25 μM) (DGAT [1]): 54.08%
- Production Yield of Triglyceride (%) (DGAT [2]): 80.2 ± 7.8%

SMILES: COC(=O)c1ccc2oc(COc3ccc(C45CC6CC(CC(C6)C4)C5)cc3)nc2c1 [Cpd. 2, 2-(4-adamantan-1-yl-phenoxymethyl)-benzoxazole-5-carboxylic acid methyl ester]
- DGAT (% inhibition in 25 μM) (DGAT [1]): −25.72%

SMILES: O=C(O)c1ccc2[nH]c(COc3ccc(C45CC6CC(CC(C6)C4)C5)cc3)nc2c1 [compound 14, 2-(4-adamantan-1-yl-phenoxymethyl)-1H-benzoimidazole-5-carboxylic acid]
- DGAT (% inhibition in 25 μM) (DGAT [1]): −13.17%

SMILES: O=C(O)c1ccc2[nH]c(COc3ccc([N+](=O)[O-])cc3)nc2c1 [compound 19, 2-(4-nitro-phenoxymethyl)-1H-benzoimidazole-5-carboxylic acid]
- DGAT (% inhibition in 5 μM) (DGAT [1]): 2.0%
- DGAT (% inhibition in 25 μM) (DGAT [1]): −5.86%

SMILES: O=C(O)c1ccc2oc(COc3ccc(Cl)cc3Cl)nc2c1 [compound 11, 2-(2,4-dichloro-phenoxymethyl)-benzoxazole-5-carboxylic acid]
- DGAT (% inhibition in 25 μM) (DGAT [1]): −16.48%

SMILES: O=C(O)c1ccc2[nH]c(COc3ccc(Cl)cc3Cl)nc2c1 [compound 16, 2-(2,4-dichloro-phenoxymethyl)-1H-benzoimidazole-5-carboxylic acid]
- DGAT (% inhibition in 25 μM) (DGAT [1]): −7.37%

SMILES: O=C(O)c1ccc2nc(COc3ccc(C45CC6CC(CC(C6)C4)C5)cc3)oc2c1 [compound 13, 2-(4-adamantan-1-yl-phenoxymethyl)-benzoxazole-6-carboxylic acid]
- DGAT (% inhibition in 25 μM) (DGAT [1]): −18.53%

SMILES: NNC(=O)c1ccc2[nH]c(COc3ccc(Cl)cc3Cl)nc2c1 [compound 34, 2-(2,4-dichloro-phenoxymethyl)-1H-benzoimidazole-5-carboxylic acid hydrazide]
- DGAT (% inhibition in 25 μM) (DGAT [1]): 6.74%

SMILES: O=C(NCCCn1ccnc1)c1ccc2[nH]c(COc3ccc(C45CC6CC(CC(C6)C4)C5)cc3)nc2c1 [compound 33, 2-(4-adamantan-1-yl-phenoxymethyl)-1H-benzoimidazole-5-carboxylic acid (3-imidazol-1-yl-propyl)-amide]
- DGAT (% inhibition in 25 μM) (DGAT [1]): 16.99%

SMILES: COC(=O)c1ccc2[nH]c(COc3ccc(C45CC6CC(CC(C6)C4)C5)cc3)nc2c1 [Cpd. 4, 2-(4-adamantan-1-yl-phenoxymethyl)-1H-benzoimidazole-5-carboxylic acid methyl ester]
- DGAT (% inhibition in 25 μM) (DGAT [1]): 60.43%
- Production Yield of Triglyceride (%) (DGAT [2]): 72.2 ± 7.5%

SMILES: O=C(NCCN1CCCCC1)c1ccc2oc(COc3ccc(C45CC6CC(CC(C6)C4)C5)cc3)nc2c1 [Cpd. 24, 2-(4-adamantan-1-yl-phenoxymethyl)-benzoxazole-5-carboxylic acid (2-piperidin-1-yl-ethyl)-amide]
- DGAT (% inhibition in 25 μM) (DGAT [1]): 52.84%
- Production Yield of Triglyceride (%) (DGAT [2]): 78.5 ± 6.2%

SMILES: NC(=O)c1ccc2nc(COc3ccc(C45CC6CC(CC(C6)C4)C5)cc3)[nH]c2c1 [compound 29, 2-(4-adamantan-1-yl-phenoxymethyl)-3H-benzoimidazole-5-carboxylic acid amide]
- DGAT (% inhibition in 5 μM) (DGAT [1]): −1.8%
- DGAT (% inhibition in 25 μM) (DGAT [1]): −13.38%

SMILES: COC(=O)c1ccc2nc(COc3ccc(C45CC6CC(CC(C6)C4)C5)cc3)oc2c1 [Cpd. 3, 2-(4-adamantan-1-yl-phenoxymethyl)-benzoxazole-6-carboxylic acid methyl ester]
- DGAT (% inhibition in 25 μM) (DGAT [1]): −5.34%

SMILES: CN(C)C(=O)c1ccc2nc(COc3ccc(C45CC6CC(CC(C6)C4)C5)cc3)[nH]c2c1 [Cpd. 30, 2-(4-adamantan-1-yl-phenoxymethyl)-3H-benzoimidazole-5-carboxylic acid dimethylamide]
- DGAT (% inhibition in 5 μM) (DGAT [1]): 8.0%
- DGAT (% inhibition in 25 μM) (DGAT [1]): 41.8%
- Production Yield of Triglyceride (%) (DGAT [2]): 87.2 ± 7.4%

SMILES: COC(=O)c1ccc2oc(COc3ccc(Cl)cc3Cl)nc2c1 [Cpd. 1, 2-(2,4-dichloro-phenoxymethyl)-benzoxazole-5-carboxylic acid methyl ester]
- DGAT (% inhibition in 25 μM) (DGAT [1]): −2.64%

SMILES: CN(C)CCNC(=O)c1ccc2[nH]c(COc3ccc(C45CC6CC(CC(C6)C4)C5)cc3)nc2c1 [compound 32, 2-(4-adamantan-1-yl-phenoxymethyl)-1H-benzoimidazole-5-carboxylic acid (2-dimethylamino-ethyl)-amide]
- DGAT (% inhibition in 25 μM) (DGAT [1]): −3.08%
